According to US7652032B2, “5-Thioxylopyranose compounds” (Laboratoires Fournier S.A., priority 2007, dated 2010):

Test system: venous thrombosis
Assay: venous thrombosis test in rats (venous stasis with hypercoagulation, Wessler technique, factor Xa), oral administration
Format: in vivo
Details: dose 6 mg/kg, thrombosis induced 2 h after administration, male Wistar rats
Procedure: The antithrombotic activity of the compounds according to the invention was studied in vivo in rats by virtue of a test that reproduces a venous thrombosis. The venous thrombosis was induced according to the protocol described in Thromb. Haemost. 1992, 67 (1), 176-179. The activity by oral administration was studied according to the following operating protocol: The experiment is carried out on male Wistar rats, not fasting, weighing 250 to 280 g and divided up into groups, each of 8 to 10 animals. The test products are administered orally (by tube) in solution or in suspension in a solution of methylcellulose (0.5% in water). The concentration of the compounds is calculated such that an amount of solution of 10 ml/kg is absorbed orally. A thrombosis is induced at a time T (between 2 hours and 8 hours) after administration of the product, and the thrombus formed is removed and weighed. In order to induce this thrombosis, a venous stasis with hypercoagulation is produced, according to the technique described by WESSLER (J. Applied Physiol. 1959, 943-946) using, as hypercoagulating agent, a solution of activated factor X (Xa), supplied by the company Biogenic (Montpellier), and having a concentration of 7.5 nKat/kg. The venous stasis is produced exactly 10 seconds after the injection of the hypercoagulating agent. The activity of the compounds tested was verified at various doses, after they were administered. The thrombosis was induced between 2 hours and 8 hours after administration of the compound.

| SMILES | Activity (%): percentage inhibition of the formation of the thrombus relative to the weight of the thrombus formed in the absence of the compound |
| --- | --- |
| CC(=O)c1cc2cccc(O[C@@H]3SC[C@@H](O)[C@H](O)[C@H]3O)c2o1 [Example 8, 2-acetyl-7-benzofuranyl 5-thio-β-D-xylopyranoside] | 91% |
| Cc1nc2cc(O[C@@H]3SC[C@@H](O)[C@H](O)[C@H]3O)ccc2s1 [Example 12, 2-methyl-5-benzothiazolyl 5-thio-β-D-xylopyranoside] | 74% |
| O[C@@H]1[C@@H](O)[C@H](Oc2cccc3ocnc23)SC[C@H]1O [Example 16, 4-benzoxazolyl 5-thio-β-D-xylopyranoside] | 80% |
| O[C@@H]1[C@@H](O)[C@H](Oc2cccn3ncnc23)SC[C@H]1O [Example 39, [1,2,4]triazolo[1,5-a]pyridin-8-yl 5-thio-β-D-xylopyranoside] | 100% |
| O[C@@H]1[C@@H](O)[C@H](Oc2cccc3ccoc23)SC[C@H]1O [Example 18, 7-benzofuranyl 5-thio-β-D-xylopyranoside] | 62% |
| Cc1cn2cccc(O[C@@H]3SC[C@@H](O)[C@H](O)[C@H]3O)c2n1 [Example 2, 2-methylimidazo[1,2-α]pyridin-8-yl 5-thio-β-D-xylopyranoside] | 94% |
| O=C(O)C(F)(F)F.O=C(O)Cc1cn2cccc(O[C@@H]3SC[C@@H](O)[C@H](O)[C@H]3O)c2n1 [Example 43, 8-[(5-thio-β-D-xylopyranosyl)oxy]-imidazo[1,2-α]pyridine-2-acetic acid, salt with trifluoroacetic acid] | 53% |
